In experiment [1] the target is galectin-3 (Homo sapiens (Human), UniProt P17931). In words: Fluorescence anisotropy assay: compound as inhibitor of the interaction between galectin and a fluorescein tagged saccharide probe. In kind it is binding. The settings on record: 50 nM galectin-3, 100 nM albumin for high affinity compounds. The protocol: 100 nM albumin was included as a carrier to prevent protein loss at such low concentration of galectin.

Experiment [2] has as its system galectins. The settings on record: cited from earlier work.

Chain of galectin-3 (P17931 whole entry): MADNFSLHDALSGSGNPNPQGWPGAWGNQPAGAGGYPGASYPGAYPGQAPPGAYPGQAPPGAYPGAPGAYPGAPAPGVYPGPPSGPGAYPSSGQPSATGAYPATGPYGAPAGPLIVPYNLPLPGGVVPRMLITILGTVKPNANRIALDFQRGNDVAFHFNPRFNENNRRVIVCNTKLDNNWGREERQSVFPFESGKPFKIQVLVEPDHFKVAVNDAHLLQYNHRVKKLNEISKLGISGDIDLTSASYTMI

Regarding `O=C(NCC(F)(F)F)c1cn([C@@H]2C(O)[C@@H](Sc3ccc(Cl)c(Cl)c3)OC(CO)[C@@H]2O)nn1` (stereo in doubt) [Example 98], the dissociation constant (Kd) in experiment [1] came out at 0.56 µM. Consider `O=C[C@H](O)[C@@H](O)[C@@H](O)[C@H](O)CO` [D-galactose, D-(+)-galactose], for which the “affinity relative to lactose” value in experiment [2] is 50-100 times lower.

These data come from patent publication US11377464B2, “Galactoside inhibitor of galectins” (Galecto Biotech AB, priority 2015, dated 2022).
